Data from PubChem BioAssay AID328 (DTP/NCI, 2004).
Inconclusive results and toxic doses are left out. Non-standard residues stand in square brackets, D forms with d. Residues, ends and D or L forms follow the SMILES beside them. ξ: configuration not given here. ξF = NC(Cc1ccccc1)C(=O)O

System: BDF1 mice, P388 leukemia ip, median survival T/C
Test: NCI In Vivo Anticancer Drug Screen. Data for tumor model P388 Leukemia (intraperitoneal) in B6D2F1 (BDF1) mice
Details: endpoint: median survival time, higher = longer survival
Summary of the method: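 In tumour-bearing mice, survival after compound treatment is set against the vehicle group and given as a quotient.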

[1] = dose: 100.0 mg/kg/injection, schedule: Q04DX003 (ip), vehicle: Klucel (hydroxypropylcellulose) (HPC)
[2] = dose: 200.0 mg/kg/injection, schedule: Q04DX003 (ip), vehicle: Klucel (hydroxypropylcellulose) (HPC)
[3] = dose: 25.0 mg/kg/injection, schedule: Q04DX003 (ip), vehicle: saline
[4] = dose: 50.0 mg/kg/injection, schedule: Q04DX003 (ip), vehicle: saline
[5] = dose: 100.0 mg/kg/injection, schedule: Q04DX003 (ip), vehicle: saline
[6] = dose: 50.0 mg/kg/injection, schedule: Q01DX009 (ip), vehicle: saline with Tween-80
[7] = dose: 50.0 mg/kg/injection, schedule: Q01DX009 (ip), vehicle: saline
[8] = dose: 100.0 mg/kg/injection, schedule: Q01DX009 (ip), vehicle: saline with Tween-80
[9] = dose: 100.0 mg/kg/injection, schedule: Q01DX009 (ip), vehicle: saline
[10] = dose: 100.0 mg/kg/injection, schedule: Q04DX003 (ip), vehicle: saline with Tween-80
[11] = dose: 200.0 mg/kg/injection, schedule: Q01DX009 (ip), vehicle: saline with Tween-80
[12] = dose: 200.0 mg/kg/injection, schedule: Q04DX003 (ip), vehicle: saline with Tween-80
[13] = dose: 200.0 mg/kg/injection, schedule: Q04DX003 (ip), vehicle: saline
[14] = dose: 100.0 mg/kg/injection, schedule: Q01DX009 (ip), vehicle: Klucel (hydroxypropylcellulose) (HPC)
[15] = dose: 400.0 mg/kg/injection, schedule: Q01DX009 (ip), vehicle: Klucel (hydroxypropylcellulose) (HPC)
[16] = dose: 25.0 mg/kg/injection, schedule: Q01DX009 (ip), vehicle: saline
[17] = dose: 200.0 mg/kg/injection, schedule: Q01DX009 (ip), vehicle: saline
[18] = dose: 400.0 mg/kg/injection, schedule: Q01DX009 (ip), vehicle: saline
[19] = dose: 400.0 mg/kg/injection, schedule: Q04DX003 (ip), vehicle: saline with Tween-80

NC(=O)C1=C(O)C(=O)NC1=O
T/C (dose: 50.0 mg/kg/injection, schedule: Q04DX003 (ip), vehicle: Klucel (hydroxypropylcellulose) (HPC)): 100 % of control
T/C [1]: 109 % of control
T/C [2]: 95 % of control

Cc1cccnc1N1CCNC1=O
T/C [3]: 90 % of control
T/C [4]: 90 % of control
T/C [5]: 100 % of control

CC(C)CCC[C@@H](C)[C@H]1CC[C@H]2[C@@H]3CC=C4C[C@@H](OC(=O)Cc5ccc(N(CCCl)CCCl)cc5)CC[C@]4(C)[C@H]3CC[C@]12C
T/C (dose: 6.25 mg/kg/injection, schedule: Q01DX010 (sc), vehicle: steriod suspending solution): 87 % of control
T/C (dose: 12.5 mg/kg/injection, schedule: Q01DX010 (sc), vehicle: steriod suspending solution): 91 % of control
T/C (dose: 25.0 mg/kg/injection, schedule: Q01DX010 (sc), vehicle: steriod suspending solution): 91 % of control
T/C (dose: 50.0 mg/kg/injection, schedule: Q01DX010 (oral), vehicle: steriod suspending solution): 104 % of control
T/C (dose: 50.0 mg/kg/injection, schedule: Q01DX010 (sc), vehicle: steriod suspending solution): 92 % of control
T/C (dose: 100.0 mg/kg/injection, schedule: Q01DX010 (oral), vehicle: steriod suspending solution): 118 % of control
T/C (dose: 100.0 mg/kg/injection, schedule: Q01DX010 (sc), vehicle: steriod suspending solution): 111 % of control
T/C (dose: 200.0 mg/kg/injection, schedule: Q01DX010 (sc), vehicle: steriod suspending solution): 107 % of control
T/C (dose: 400.0 mg/kg/injection, schedule: Q01DX010 (oral), vehicle: steriod suspending solution): 172 % of control
T/C (dose: 400.0 mg/kg/injection, schedule: Q01DX010 (sc), vehicle: steriod suspending solution): 100 % of control
T/C (dose: 800.0 mg/kg/injection, schedule: Q01DX010 (oral), vehicle: steriod suspending solution): 118 % of control

O=CNNC(=O)c1ccccn1
T/C [6]: 96 % of control
T/C [7]: 100 % of control
T/C [4]: 100 % of control
T/C [8]: 96 % of control
T/C [9]: 104 % of control
T/C [10]: 113 % of control
T/C [5]: 100 % of control
T/C [11]: 96 % of control
T/C [12]: 109 % of control
T/C [13]: 100 % of control

C=C(C)C(=O)O[C@H]1C[C@@]23O[C@@H]2CCC(=C[C@H]2OC(=O)C(=C)[C@H]12)COC3O (stereo partly specified)
T/C (dose: 9.37 mg/kg/injection, schedule: Q01DX009 (ip), vehicle: saline): 108 % of control
T/C (dose: 18.75 mg/kg/injection, schedule: Q01DX009 (ip), vehicle: saline): 104 % of control
T/C (dose: 18.75 mg/kg/injection, schedule: Q04DX003 (ip), vehicle: saline): 113 % of control
T/C (dose: 37.5 mg/kg/injection, schedule: Q04DX003 (ip), vehicle: saline): 95 % of control

NC/C(=N\O)c1ccc(C(F)(F)F)cc1
T/C (dose: 50.0 mg/kg/injection, schedule: Q01DX001 (ip), vehicle: Klucel (hydroxypropylcellulose) (HPC)): 105 % of control
T/C (dose: 100.0 mg/kg/injection, schedule: Q01DX001 (ip), vehicle: Klucel (hydroxypropylcellulose) (HPC)): 114 % of control
T/C (dose: 200.0 mg/kg/injection, schedule: Q01DX001 (ip), vehicle: Klucel (hydroxypropylcellulose) (HPC)): 105 % of control

O=C(N=c1cc(-c2ccc(Cl)cc2)ss1)C(Cc1ccccc1)N1C(=O)c2ccccc2C1=O (stereo unspecified)
T/C (dose: 6.25 mg/kg/injection, schedule: Q01DX009 (ip), vehicle: water): 101 % of control
T/C (dose: 6.25 mg/kg/injection, schedule: Q04DX003 (ip), vehicle: water): 110 % of control
T/C (dose: 12.5 mg/kg/injection, schedule: Q01DX009 (ip), vehicle: water): 104 % of control
T/C (dose: 12.5 mg/kg/injection, schedule: Q04DX003 (ip), vehicle: water): 100 % of control
T/C (dose: 25.0 mg/kg/injection, schedule: Q01DX009 (ip), vehicle: water): 108 % of control
T/C (dose: 25.0 mg/kg/injection, schedule: Q04DX003 (ip), vehicle: water): 110 % of control
T/C (dose: 50.0 mg/kg/injection, schedule: Q01DX009 (ip), vehicle: water): 104 % of control
T/C (dose: 50.0 mg/kg/injection, schedule: Q04DX003 (ip), vehicle: water): 104 % of control
T/C (dose: 100.0 mg/kg/injection, schedule: Q01DX009 (ip), vehicle: water): 108 % of control
T/C (dose: 100.0 mg/kg/injection, schedule: Q04DX003 (ip), vehicle: water): 107 % of control
T/C (dose: 200.0 mg/kg/injection, schedule: Q01DX009 (ip), vehicle: water): 108 % of control

O=C(Nc1ccccc1)Oc1cccc(/C=N/Sc2ccccc2)c1
T/C (dose: 12.5 mg/kg/injection, schedule: Q01DX009 (ip), vehicle: saline with Tween-80): 107 % of control
T/C (dose: 25.0 mg/kg/injection, schedule: Q01DX009 (ip), vehicle: saline with Tween-80): 100 % of control
T/C [6]: 91 % of control

C[N+](C)(C)CCOC(=O)/C=C/c1cnc[nH]1
T/C (dose: 5.0 mg/kg/injection, schedule: Q01DX009 (ip), vehicle: saline): 97 % of control
T/C (dose: 10.0 mg/kg/injection, schedule: Q01DX009 (ip), vehicle: saline): 95 % of control
T/C (dose: 20.0 mg/kg/injection, schedule: Q01DX009 (ip), vehicle: saline): 117 % of control

COC1OC(COS(=O)(=O)c2ccc(C)cc2)C2OC(C)(C)OC12 (stereo unspecified)
T/C (dose: 50.0 mg/kg/injection, schedule: Q01DX009 (ip), vehicle: Klucel (hydroxypropylcellulose) (HPC)): 104 % of control
T/C [14]: 90 % of control
T/C [15]: 90 % of control

Cc1ccccc1C1(c2ccccc2C)OC(=O)c2ccccc21
T/C [14]: 90 % of control
T/C [1]: 95 % of control
T/C (dose: 200.0 mg/kg/injection, schedule: Q01DX009 (ip), vehicle: Klucel (hydroxypropylcellulose) (HPC)): 104 % of control
T/C [2]: 91 % of control
T/C [15]: 90 % of control
T/C (dose: 400.0 mg/kg/injection, schedule: Q04DX003 (ip), vehicle: Klucel (hydroxypropylcellulose) (HPC)): 87 % of control

S=c1cc(-c2ccc(Cl)cc2)ss1
T/C [16]: 123 % of control
T/C [7]: 101 % of control
T/C [9]: 107 % of control
T/C [5]: 107 % of control
T/C [17]: 107 % of control
T/C [13]: 110 % of control
T/C [18]: 123 % of control
T/C (dose: 400.0 mg/kg/injection, schedule: Q04DX003 (ip), vehicle: saline): 100 % of control

NC(Cc1ccccc1)C(=O)NCC(=O)NCC(=O)O (stereo not drawn) (H-[ξF]-Gly-Gly-OH)
T/C [10]: 95 % of control
T/C [12]: 104 % of control
T/C [19]: 109 % of control

CC(=O)CC(=O)Nc1ccc(N=Nc2ccccc2)cc1
T/C [10]: 109 % of control
T/C [12]: 109 % of control
T/C [19]: 119 % of control

CC(=O)CC(C)=O.CC(=O)CC(C)=O.C[CH2][Sn][CH2]C
T/C (dose: 12.5 mg/kg/injection, schedule: Q01DX001 (ip), vehicle: Klucel (hydroxypropylcellulose) (HPC)): 116 % of control

CCS/C(N)=N\N
T/C (dose: 12.5 mg/kg/injection, schedule: Q01DX009 (ip), vehicle: saline): 100 % of control
T/C [16]: 104 % of control
T/C [3]: 109 % of control
T/C [4]: 104 % of control

Oc1c(Cl)cc(Cl)c2cccnc12
T/C (dose: 12.5 mg/kg/injection, schedule: Q01DX010 (ip), vehicle: carboxymethylcellulose (CMC)): 104 % of control
T/C (dose: 25.0 mg/kg/injection, schedule: Q01DX010 (ip), vehicle: carboxymethylcellulose (CMC)): 104 % of control
T/C (dose: 50.0 mg/kg/injection, schedule: Q01DX010 (ip), vehicle: carboxymethylcellulose (CMC)): 104 % of control

CC(C)N(C)C(C)(C)CO
T/C (dose: 50.0 mg/kg/injection, schedule: Q01DX001 (ip), vehicle: saline): 100 % of control
T/C (dose: 100.0 mg/kg/injection, schedule: Q01DX001 (ip), vehicle: saline): 100 % of control
T/C (dose: 200.0 mg/kg/injection, schedule: Q01DX001 (ip), vehicle: saline): 100 % of control

COc1ccc(C(=O)CC(C(=O)O)c2ccc(OC)c(OC)c2)cc1OC (stereo unspecified)
T/C [8]: 104 % of control
T/C [11]: 104 % of control
T/C (dose: 400.0 mg/kg/injection, schedule: Q01DX009 (ip), vehicle: saline with Tween-80): 100 % of control

COC(=O)CCCNC(=O)/C=C1/c2cc(OC)c(OC)cc2CCC1S(=O)(=O)OC (stereo unspecified)
T/C [9]: 104 % of control
T/C [17]: 90 % of control
T/C [18]: 100 % of control
